A short description of data set [1]: Coffee mug cross section analysis of brewed cup, 1:10 oil/TM mix underneath the filter. The conditions noted are these: 1:10 oil/TM mix underneath filter. The class given is physicochemical. As to the method:
This example investigated how THC was interacting with the coffee mug after it had been brewed. A cup of coffee was brewed with the 1:10 oil/TM mix placed in the K-Cup underneath the filter containing coffee grounds.
Two separate aliquots were taken from the cup (top and middle), and then coffee was carefully poured out. Methanol was added to the cup and the oil that had condensed to the sides of the cup was dissolved and quantified.

The conditions of data set [2]: cited from earlier work.

On to `CCCCCc1cc(O)c2c(c1)OC(C)(C)[C@@H]1CCC(C)=C[C@@H]21` [THC, delta-9-tetrahydrocannabinol], for which, in data set [1], the “THC found in the oily coffee film at the top of the cup” value is given as 20-25%, the “THC in the coffee” value is “approximately 60%” and the “THC lost (unknown cause)” value turned out to be 20%. Also, the “THC in a 200 mL cup of coffee at aqueous solubility” value in data set [2] is listed as 0.6 mg.
